Our source for the Ki values is BindingDB's records for doi:10.1021/jm00394a022 (Pennsylvania State University, 1987).

Experiment [1] has as its target Glutamine synthetase (Ovis aries). Briefly: Compound was evaluated for binding affinity by the inhibition of Glutamine synthetase (Ovine brain) activity using biosynthetic assay [competitive inhibition].
Experiment [2] addresses Glutamine synthetase (Escherichia coli) (UniProt P0A9C5). Nature of the experiment: Compound was evaluated for binding affinity by the inhibition of Glutamine synthetase (Escherichia coli) activity using biosynthetic assay [mixed Non-competitive inhibition].
For experiment [3], the target named is Glutamine synthetase (Pisum sativum). Briefly: Compound was evaluated for binding affinity by the inhibition of Glutamine synthetase (Pea seed) activity using biosynthetic assay [noncompetitive inhibition].

The term Ki denotes a measure of affinity in units of concentration, obtained from inhibition or displacement. Read a low Ki as higher affinity.

Molecules are shown by their SMILES.

Glutamine synthetase (Escherichia coli), sequence (P0A9C5 whole entry, looked up): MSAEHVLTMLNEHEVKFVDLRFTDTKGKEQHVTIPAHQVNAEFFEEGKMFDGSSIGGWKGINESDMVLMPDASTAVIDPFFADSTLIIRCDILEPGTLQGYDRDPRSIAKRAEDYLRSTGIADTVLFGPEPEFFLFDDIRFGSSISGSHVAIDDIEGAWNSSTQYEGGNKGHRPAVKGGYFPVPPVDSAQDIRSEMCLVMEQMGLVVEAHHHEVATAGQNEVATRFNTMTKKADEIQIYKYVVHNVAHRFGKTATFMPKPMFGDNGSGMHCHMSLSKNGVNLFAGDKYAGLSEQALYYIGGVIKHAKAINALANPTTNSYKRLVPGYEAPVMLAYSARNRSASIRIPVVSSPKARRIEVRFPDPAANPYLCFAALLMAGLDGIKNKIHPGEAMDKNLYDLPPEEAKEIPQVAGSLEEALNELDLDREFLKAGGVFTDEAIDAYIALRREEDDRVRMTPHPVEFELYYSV

`NC(CCP(=O)(O)CP(=O)(O)O)C(=O)O` (stereo not drawn) [2-ammonio-4-[hydroxy(phosphonomethyl)phosphoryl]butanoate]: the Ki in experiment [1] was determined as 750 µM; in experiment [2] it was 75 µM; in experiment [3] it was 250 µM.
